According to patent US20160024249A1, “Temperature-Responsive Polymer Compositions and Methods of Use” (Vanderbilt University, priority 2014, published 2016):
No end group written: not given here.

What was measured:
[1] = system: mouse model of hind limb ischemia; assay: Fluorescence microangiography (vessel perfusion capacity); format: in vivo, A/J mice
Procedure: (§1) Mouse model of hind limb ischemia: Wild type A/J mice were used to develop a model of PAD as described previously, by ligating the femoral artery and vein at one ligation below the epigastric artery and a second ligation around the artery and vein at a distal location just proximal to the deep femoral branch. The femoral artery and vein were then cut between these two sutures. A 13% by weight solution of injectable polymers in H2O 2O was mixed with 75 mg Ac-SDKP, C16, or the combination of Ac-SDKP and C16 at 25° C. In order to control the hydrogel size considering the possibility that the hydrogel size may change peptide release and therefore inflammatory responses a single, 10 mL bulk injection or ten, 1 mL injections of peptide-loaded polymer were made into the thigh muscle adjacent to the femoral artery ligations. The surgical incision was then closed with non-degradable sutures. As controls, femoral artery ligation surgery was performed on animals without any microgels or peptide treatment or with peptide in PBS injections into the subcutaneous tissue adjacent to femoral artery ligations. The left hind limb (unoperated) was also used as a surgical control.
Angiogenesis and phagocytosis assays: Fourteen days after femoral artery ligation, mice were sacrificed and tissue and microgels were harvested for analysis. Immediately before sacrificing the mice, functional fluorescence micro-angiography was performed to visualize angiogenesis in and around peptide-loaded microgels, as described previously. As a result of fluorescence microangiography, only the functional capillaries with a perfusion capacity, including those around injected micro-gels, show red fluorescence in the mouse body. Excised tissue from the site of microgel injections was imaged using an Olympus FV100 confocal microscope. For quantification of vessel perfusion capacity, the red fluorescence intensity was quantified using Image J software (n=6 images per mouse, n=6 mice per treatment).

RAW 264.7 macrophages [2] = assay: TNF-a ELISA of cell culture supernatant; format: cell-based, mouse; details: RAW 264.7, 72 h, peptides 75 mg/mL, TNF-a antibodies 5 mg/mL
Procedure: (§2) Cell Culture: RAW 264.7 macrophages (ATCC) were cultured in DMEM (Gibco) supplemented with 10% FBS and 1% penicillin/strepto-mycin. Mouse aortic endothelial cells (mAECs) were a generous gift from Dr. Ambra Pozzi at Vanderbilt University Medical Center. mAECs were cultured in EGM-2 Basal Media supplemented with BulletKit (Lonza, Allendale, N.J.) and 10 units/mLIFN-g (Sigma). RAW 264.7 mouse macrophage cells (Sigma) were cultured in DMEM with 10% FBS and 1% penicillin/streptomycin. For cell culture studies with peptides, 75 mg/mL of Ac-SDKP or C16 peptides was used. For inhibition studies, 5 mM of MMP-9 inhibitor-1 (CTK8G1150; AG-L-66085, Santa Cruz Biotechnology, Dallas, Tex.) or 5 mg/mL of LEAF Purified Mouse TNF-a antibody (BioLegend) was used.
ELISA: To verify TNF-a inhibition with antibodies, an ELISA was performed using Mouse TNF-a ELISA MAXTM Deluxe (Biolegend) according to the supplier's protocol. Secreted TNF-a in RAW 264.7 cell culture supernatant was measured by reading absorbance at 450 nm using a TECAN M1000 plate reader and quantified against a standard curve (n=4 per treatment).

RAW 264.7 macrophages [3] = assay: Gene expression by quantitative RT-PCR; format: cell-based, mouse; details: 75 mg/mL peptide, 72 h
Procedure: as §2
Gene expression: mAECs or RAW 264.7 cells were seeded at a density of 3×10^5 cells/mL on TCPS with 75 mg/mL of Ac-SDKP, C16, or the combination of C16 and Ac-SDKP peptides. After 3 days, RNA was extracted from […] using Trizol reagent and RNA easy columns. After dissolving RNA in RNase-free water, the concentration and purity of isolated RNA was measured using TECAN plate reader Nanoquant (company info). […] 50 ng/well cDNA was then amplified using SYBR green Supermix and fluorescence signal was measured on a BioRAD real time PCR machine. […] Expression was calculated using the […] and normalized to GAPDH expression (n=8).

[4] = system: mouse model of hind limb ischemia; assay: Laser Doppler perfusion imaging (LDPI) of perfusion recovery; format: in vivo, A/J mice; details: peptide-loaded microgels, 14 day time course
Procedure: as §1, with “As controls, femoral artery ligation surgery was performed on animals without any microgels or peptide treatment or with peptide in PBS injections into the subcutaneous tissue adjacent to femoral artery ligations. The left hind limb (unoperated) was also used as a surgical control.” left out
LDPI: LDPI was performed on the footpad region of the hind limb of the mice using a Periscan PIM II device. […] The perfusion ratio was calculated by normalizing the average perfusion value of the ischemic footpad (right) to the average perfusion value of the control, un-operated footpad (left) using Image J (NIH).

[5] = system: mouse model of hind limb ischemia; assay: Optical coherence tomography (Doppler and speckle-variance OCT) of blood vessels; format: in vivo, A/J mice; details: for vessel morphology (speckle-variance OCT volume scans of calf muscle): injectable microgels
Procedure: as §1
Optical coherence tomography: Doppler OCT and speckle-variance OCT were used to non-invasively image blood vessels in the ischemic gastrocnemius muscle of mice on days 1 and 13 after femoral artery ligation, as previously described. […] Doppler OCT cross-sectional scans (B-scans) were used to quantify blood flow changes over time in the hind limb, while volume intensity projections from speckle-variance OCT image volumes (C-scans) presented vessel morphology differences between groups. […] Six Doppler OCT B-scans (4 mm, 800 A-scans, Doppler number of 9) were performed per mouse at each time point and perfusion was quantified by calculating the ratio of the number of blood vessel pixels per scan over the total imaged area per scan (n=6 mice per time point).

[6] = system: mouse aortic endothelial cells (mAECs); assay: Tubulogenesis on growth factor reduced Matrigel; format: cell-based; details: mAECs on Matrigel for 6 h
Procedure: as §2
Tubulogenesis: mAECs (3×10^5 cells/mL) were cultured on growth factor reduced Matrigel ([…], BD Biosciences) for 6 h before imaging for tube formation using a Nikon Eclipse Ti microscope (n=4 per treatment).

[7] = system: mouse model of hind limb ischemia; assay: Histological analysis of inflammation (H&E, F4/80 macrophage infiltration); format: in vivo, A/J mice; details: multiple 1 mL microgel injections
From the text: Mouse model of hind limb ischemia: Wild type A/J mice were used to develop a model of PAD as described previously, by ligating the femoral artery and vein at one ligation below the epigastric artery and a second ligation around the artery and vein at a distal location just proximal to the deep femoral branch. The femoral artery and vein were then cut between these two sutures. […] In order to control the hydrogel size considering the possibility that the hydrogel size may change peptide release and therefore inflammatory responses a single, 10 mL bulk injection or ten, 1 mL injections of peptide-loaded polymer were made into the thigh muscle adjacent to the femoral artery ligations. The surgical incision was then closed with non-degradable sutures. […]
Histological analysis of angiogenesis and inflammation: After sacrificing mice, ischemic muscle samples were prepared for histological analysis as described elsewhere. […] Immunohistochemical (IHC) staining to identify activated inflammatory cells by F4/80 expression was quantified by normalizing the total F4/80 positive area (indicated by brown staining) to the total cell number (determined by hema-toxylin nuclear staining) using Image J.

[8] = system: mouse model of hind limb ischemia; assay: Vybrant phagocytosis assay in harvested microgels and surrounding tissue; format: in vivo, A/J mice; details: peptide-loaded microgels, day 14
From the text: Mouse model of hind limb ischemia: Wild type A/J mice were used to develop a model of PAD as described previously, by ligating the femoral artery and vein at one ligation below the epigastric artery and a second ligation around the artery and vein at a distal location just proximal to the deep femoral branch. The femoral artery and vein were then cut between these two sutures. […] In order to control the hydrogel size considering the possibility that the hydrogel size may change peptide release and therefore inflammatory responses a single, 10 mL bulk injection or ten, 1 mL injections of peptide-loaded polymer were made into the thigh muscle adjacent to the femoral artery ligations. The surgical incision was then closed with non-degradable sutures. As controls, femoral artery ligation surgery was performed on animals without any microgels or peptide treatment or with peptide in PBS injections into the subcutaneous tissue adjacent to femoral artery ligations. […]
A phagocytosis assay was performed in harvested microgels using Vybrant Phagocytosis Assay kit according to the manufacturer's protocol. Green fluorescence from internalized Escherichia coli particles in excised microgels and surrounding tissue was visualized through confocal imaging. The intensity of green fluorescence in each image was quantified using Image J (n=6 images per mouse, n=6 mice per treatment).

[9] = system: mouse aortic endothelial cells (mAECs); assay: MMP-9 activity by zymography; format: cell-based; details: 72 h, peptides 75 mg/mL, MMP-9 inhibitors 5 mM, TNF-a antibodies 5 mg/mL
Procedure: as §2
MMP-9 activity: After 72 h culture in serum-free media, culture media from mAECs or RAW 264.7 cells (3×10^5 cells/mL, with/without peptides or TNF-a/MMP-9 inhibitors) was collected, concentrated, and analyzed by zymography, as described previously. Concentrated protein samples were incubated with non-reducing buffer at a ratio of 1:1. […] total protein per lane were loaded onto a 7.5% polyacrylamide gel containing 0.1%(w/v) gelatin (Sigma). Gels were washed in dH2O containing 3.3% (v/v) Triton X-100, followed by […] incubation in reaction buffer at 37 C. After incubation, gels were placed in fixative (30% methanol, 10% acetic acid, and 60% dH2O) for 1 h before staining with 4 parts Coomassie brilliant blue R-250 (Sigma) and 1 part methanol for 12 h. Gels were destained in 25% methanol for 1 h. The gelatinolytic activity of pro-MMP-9 was determined by densitometry of the 97 KDa white band on a blue background using Image J(n=4 per treatment). MMP-9 expression was then normalized to the expression from the no inhibitor, no peptide treated group.

[10] = system: mouse aortic endothelial cells (mAECs); assay: Gene expression by quantitative RT-PCR; format: cell-based; details: 75 mg/mL peptide, 72 h
Procedure: as §2
Gene expression: mAECs or RAW 264.7 cells were seeded at a density of 3×10^5 cells/mL on TCPS with 75 mg/mL of Ac-SDKP, C16, or the combination of C16 and Ac-SDKP peptides. After 3 days, RNA was extracted from […] using Trizol reagent and RNA easy columns. After dissolving RNA in RNase-free water, the concentration and purity of isolated RNA was measured using TECAN plate reader Nanoquant (company info). At least […] of RNA was reverse transcribed using iScriptReverse transcription Supermix for RT-qPCR on a BioRad thermocycler (company info). 50 ng/well cDNA was then amplified using SYBR green Supermix and fluorescence signal was measured on a BioRAD real time PCR machine. TGF-b1 forward: […], reverse: […]. NF-kb forward: […]-CACAGA, reverse: […]. TIMP1 forward: […], reverse: […]-CACA. FGF-1 forward: […], reverse: […]. FGF-2: MMP-9: […]-CAATCC, reverse: […]. MMP-2 forward: […], reverse: […]. TNF-a: forward: […], reverse: AGA-[…]. VEGF forward: […]-CACCA, reverse: […]. GAPDH forward: […], reverse: […]. TIMP-2 forward: […], reverse: CACGCG-[…]. Expression was calculated using the […] and normalized to GAPDH expression (n=8).

RAW 264.7 macrophages [11] = assay: MMP-9 activity by zymography; format: cell-based, mouse; details: RAW 264.7, 72 h, regardless of TNF-a inhibition
Procedure: as §2
MMP-9 activity: After 72 h culture in serum-free media, culture media from mAECs or RAW 264.7 cells (3×10^5 cells/mL, with/without peptides or TNF-a/MMP-9 inhibitors) was collected, concentrated, and analyzed by zymography, as described previously. Concentrated protein samples were incubated with non-reducing buffer at a ratio of 1:1. […] total protein per lane were loaded onto a 7.5% polyacrylamide gel containing 0.1%(w/v) gelatin (Sigma). […] The gelatinolytic activity of pro-MMP-9 was determined by densitometry of the 97 KDa white band on a blue background using Image J(n=4 per treatment). […]

Procedure for iPSC-CMs: The encapsulation study was performed by mixing cells with polymer solution and gelled at 37° C. After two weeks, live cells were stained by calcein AM (green fluorescence) (g).

Row | Compound | angiogenesis in comparison to microgels without peptide loading ([1]; peptide-loaded microgels, day 14) | secreted TNF-a (ELISA) (RAW 264.7 macrophages [2]) | TNF-a expression in comparison to no peptide treatment (RAW 264.7 macrophages [3]) | perfusion recovery (LDPI) [4] | vessel morphology (speckle-variance OCT volume scans of calf muscle) [5] | tubulogenesis (tube formation) [6] | inflammatory / macrophage infiltration in muscle tissue ([7]; day 14, vs no peptide) | phagocytic activity in tissue around microgels [8] | MMP-9 activity in endothelial cells (zymography) [9] | TNF-a expression in comparison to no peptide treatment [10] | MMP-9 expression, decrease compared to no peptide treatment ([10]; normalized to GAPDH) | viability of encapsulated iPSC-CMs (calcein AM) (iPSC-CMs) | angiogenesis compared to PBS alone ([1]; PBS injections of peptide, no microgel) | angiogenesis / perfusion capacity increase vs. microgels without peptides ([1]; microgel-mediated delivery, day 14) [fold] | higher perfusion compared to microgels without peptides (LDPI) ([4]; ischemic/control foot ratio) [%] | increase in the total area of vessels (Doppler OCT) compared to Ac-SDKP or no treatment ([5]; implantable scaffolds, day 1 to day 13) | macrophage infiltration, increase compared to no peptide treatment ([7]; day 14) | MMP-9 activity compared to macrophages without peptide treatment (RAW 264.7 macrophages [11]) | TIMP-1 expression [10]
1 | N-acetyl-Ser-Asp-Lys-Pro (Ac-SDKP) [anti-inflammatory peptide] | reduced both responses | secreted the least amounts of TNF-a | decreased TNF-a expression | did not increase perfusion | few blood vessels with limited branching | diminished | further decreased inflammatory infiltration | reduced both responses | diminished | decreased TNF-a expression | over 50% |  |  |  |  |  |  |  | 
2 | polyethylene glycol-co-poly-8-caprolactone [PEG-PCL] |  |  |  |  |  |  |  |  |  |  |  | maintained their viability |  |  |  |  |  |  | 
3 | KAFDITYVRLKF [C16, pro-angiogenic peptide] |  |  | increased TNF-a expression |  | many vessels with a high degree of branching | augmented MMP-9 activity and tubulogenesis |  | higher phagocytic activity than no peptide controls | augmented MMP-9 activity and tubulogenesis | increased TNF-a expression |  |  | Slightly increased angiogenesis | ~1.5 | 29 | greater than two fold | two fold | significantly higher levels of MMP-9 activity | decreased TIMP-1 expression significantly
4 | CCN(CC)Cc1cc(C)c(N(Cc2ccccc2)S(=O)(=O)c2ccc(OC)cc2)c(C(=O)NO)c1 [MMP-9 inhibitor, reference compound] |  |  |  |  |  | significantly reduced |  |  | attenuation of MMP-9 activity |  |  |  |  |  |  |  |  |  | 
